Columns and labels:
Test in all cases: biochemical
Type in all cases: biochemical
382 unique human kinases [1] = target: T1, 382 unique human kinases (Homo sapiens, UniProt Q92630); conditions: DYRK2, 10 uM; for remaining activity at 10 µM: read-out: % Enzyme Activity (relative to DMSO controls)
T1 construct: purchased Reaction Biology (HotSpot contract assay)
T1 sequence (Q92630 1-601): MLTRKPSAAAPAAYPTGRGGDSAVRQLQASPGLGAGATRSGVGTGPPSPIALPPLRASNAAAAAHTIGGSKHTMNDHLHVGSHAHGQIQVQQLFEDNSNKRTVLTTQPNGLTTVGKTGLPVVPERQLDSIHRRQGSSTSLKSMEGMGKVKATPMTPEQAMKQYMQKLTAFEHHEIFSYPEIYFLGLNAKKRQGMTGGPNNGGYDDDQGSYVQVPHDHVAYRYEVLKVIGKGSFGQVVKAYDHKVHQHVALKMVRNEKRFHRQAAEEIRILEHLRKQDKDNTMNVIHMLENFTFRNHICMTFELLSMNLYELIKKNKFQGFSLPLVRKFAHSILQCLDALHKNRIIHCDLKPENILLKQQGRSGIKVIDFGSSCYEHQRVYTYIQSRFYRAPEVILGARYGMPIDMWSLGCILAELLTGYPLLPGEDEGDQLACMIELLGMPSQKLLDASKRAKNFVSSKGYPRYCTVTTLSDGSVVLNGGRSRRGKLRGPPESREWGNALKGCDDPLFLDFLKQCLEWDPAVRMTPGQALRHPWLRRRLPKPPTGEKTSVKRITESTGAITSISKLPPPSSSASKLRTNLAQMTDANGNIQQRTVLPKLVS

382 unique human kinases [2] = target: T2, 382 unique human kinases (Homo sapiens, UniProt Q92918); conditions: kinase HPK1/MAP4K1, compound 10 uM; for remaining activity at 10 µM: read-out: % Enzyme Activity (relative to DMSO controls)
T2 construct: purchased Reaction Biology (HotSpot contract assay)

382 unique human kinases [3] = target: T3, 382 unique human kinases (Homo sapiens, UniProt Q05513); conditions: PKCzeta, 10 uM; for remaining activity at 10 µM: read-out: % Enzyme Activity (relative to DMSO controls)
T3 construct: purchased Reaction Biology (HotSpot contract assay)
T3 sequence (Q05513 1-592): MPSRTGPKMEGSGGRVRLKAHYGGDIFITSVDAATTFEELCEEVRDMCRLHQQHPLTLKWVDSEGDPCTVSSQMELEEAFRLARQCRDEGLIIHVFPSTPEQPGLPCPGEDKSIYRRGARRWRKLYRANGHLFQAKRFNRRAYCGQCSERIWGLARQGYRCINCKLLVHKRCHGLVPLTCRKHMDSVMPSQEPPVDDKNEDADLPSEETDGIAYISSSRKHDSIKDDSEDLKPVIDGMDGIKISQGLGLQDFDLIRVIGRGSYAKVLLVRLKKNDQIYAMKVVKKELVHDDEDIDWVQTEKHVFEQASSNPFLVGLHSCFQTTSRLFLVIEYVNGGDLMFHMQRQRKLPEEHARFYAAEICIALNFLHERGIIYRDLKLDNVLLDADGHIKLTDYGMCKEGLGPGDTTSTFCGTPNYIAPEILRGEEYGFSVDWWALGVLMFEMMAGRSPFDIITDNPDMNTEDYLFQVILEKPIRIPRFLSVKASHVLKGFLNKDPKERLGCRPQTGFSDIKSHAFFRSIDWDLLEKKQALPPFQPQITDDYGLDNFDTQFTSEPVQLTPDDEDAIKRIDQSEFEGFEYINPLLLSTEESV

382 unique human kinases [4] = target: T4, 382 unique human kinases (Homo sapiens, UniProt P45985); conditions: MKK4, [ATP] 2.5 µM, compound 10 uM; for remaining activity at 10 µM: read-out: % Enzyme Activity (relative to DMSO controls)
T4 construct: purchased Reaction Biology (HotSpot contract assay)
T4 sequence (P45985 1-399): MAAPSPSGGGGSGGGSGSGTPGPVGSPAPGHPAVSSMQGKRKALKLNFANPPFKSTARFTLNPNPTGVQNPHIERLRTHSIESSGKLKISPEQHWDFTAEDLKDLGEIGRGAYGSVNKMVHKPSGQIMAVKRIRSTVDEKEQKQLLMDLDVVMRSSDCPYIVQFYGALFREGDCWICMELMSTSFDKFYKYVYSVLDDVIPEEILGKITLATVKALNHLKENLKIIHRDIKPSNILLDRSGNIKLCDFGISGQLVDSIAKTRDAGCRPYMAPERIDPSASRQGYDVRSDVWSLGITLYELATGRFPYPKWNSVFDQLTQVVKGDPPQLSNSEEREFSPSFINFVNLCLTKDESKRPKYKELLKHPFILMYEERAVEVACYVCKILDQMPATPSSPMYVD

382 unique human kinases [5] = target: T5, 382 unique human kinases (Homo sapiens, UniProt Q9H792); conditions: PEAK1, [ATP] 30 µM
T5 construct: purchased Reaction Biology (HotSpot contract assay)

382 unique human kinases [6] = target: T6, 382 unique human kinases (Homo sapiens, UniProt P10721, N822K/V560G); conditions: c-Kit (V560G/N822K), [ATP] 5 µM, compound 10 uM; for remaining activity at 10 µM: read-out: % Enzyme Activity (relative to DMSO controls)
T6 construct: purchased Reaction Biology (HotSpot contract assay)

382 unique human kinases [7] = target: T7, 382 unique human kinases (Homo sapiens, UniProt Q13976); conditions: PKG1a, 10 uM; for remaining activity at 10 µM: read-out: % Enzyme Activity (relative to DMSO controls)
T7 construct: purchased Reaction Biology (HotSpot contract assay)
T7 sequence (Q13976 1-671): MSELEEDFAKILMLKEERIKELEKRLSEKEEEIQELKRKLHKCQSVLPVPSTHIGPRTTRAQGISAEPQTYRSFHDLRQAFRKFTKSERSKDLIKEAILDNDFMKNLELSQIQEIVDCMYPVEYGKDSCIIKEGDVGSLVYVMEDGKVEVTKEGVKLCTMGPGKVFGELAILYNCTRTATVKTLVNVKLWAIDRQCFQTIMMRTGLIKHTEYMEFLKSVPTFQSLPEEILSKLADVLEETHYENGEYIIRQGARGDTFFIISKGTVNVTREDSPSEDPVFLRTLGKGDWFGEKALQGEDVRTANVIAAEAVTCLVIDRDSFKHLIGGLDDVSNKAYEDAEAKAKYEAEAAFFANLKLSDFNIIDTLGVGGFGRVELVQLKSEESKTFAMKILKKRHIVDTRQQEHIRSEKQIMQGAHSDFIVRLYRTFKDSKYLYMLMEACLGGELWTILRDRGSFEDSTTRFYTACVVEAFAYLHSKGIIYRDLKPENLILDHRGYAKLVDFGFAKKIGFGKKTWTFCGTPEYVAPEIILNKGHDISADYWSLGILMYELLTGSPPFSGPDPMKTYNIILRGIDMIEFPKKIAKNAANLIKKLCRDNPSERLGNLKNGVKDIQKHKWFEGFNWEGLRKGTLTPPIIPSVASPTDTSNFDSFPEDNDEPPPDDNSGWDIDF

382 unique human kinases [8] = target: T8, 382 unique human kinases (Homo sapiens, UniProt P04629); conditions: TRKA, [ATP] 100 µM, compound 10 uM; for remaining activity at 10 µM: read-out: % Enzyme Activity (relative to DMSO controls)
T8 construct: purchased Reaction Biology (HotSpot contract assay)

[9] = compound 10 uM, read-out: % Enzyme Activity (relative to DMSO controls)

T8 sequence (P04629 33-796): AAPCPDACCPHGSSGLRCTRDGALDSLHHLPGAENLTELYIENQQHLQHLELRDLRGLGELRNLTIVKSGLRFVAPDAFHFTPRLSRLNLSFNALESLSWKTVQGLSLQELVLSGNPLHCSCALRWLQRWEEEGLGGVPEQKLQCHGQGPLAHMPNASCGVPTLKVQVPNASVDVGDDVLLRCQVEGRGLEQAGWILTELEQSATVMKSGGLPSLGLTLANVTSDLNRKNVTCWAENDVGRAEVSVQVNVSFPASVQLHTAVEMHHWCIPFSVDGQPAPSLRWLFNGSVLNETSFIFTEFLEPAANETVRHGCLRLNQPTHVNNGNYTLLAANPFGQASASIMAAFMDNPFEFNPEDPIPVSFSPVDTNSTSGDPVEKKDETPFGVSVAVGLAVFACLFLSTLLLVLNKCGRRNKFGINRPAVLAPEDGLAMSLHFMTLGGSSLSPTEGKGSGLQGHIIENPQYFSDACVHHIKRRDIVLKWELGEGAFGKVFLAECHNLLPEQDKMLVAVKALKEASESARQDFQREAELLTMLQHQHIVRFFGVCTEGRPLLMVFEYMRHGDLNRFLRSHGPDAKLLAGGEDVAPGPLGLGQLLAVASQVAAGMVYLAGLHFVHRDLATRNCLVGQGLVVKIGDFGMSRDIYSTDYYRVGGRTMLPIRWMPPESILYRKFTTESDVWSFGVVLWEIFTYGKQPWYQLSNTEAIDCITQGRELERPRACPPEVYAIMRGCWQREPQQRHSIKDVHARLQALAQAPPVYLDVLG
T5 sequence (Q9H792 whole entry): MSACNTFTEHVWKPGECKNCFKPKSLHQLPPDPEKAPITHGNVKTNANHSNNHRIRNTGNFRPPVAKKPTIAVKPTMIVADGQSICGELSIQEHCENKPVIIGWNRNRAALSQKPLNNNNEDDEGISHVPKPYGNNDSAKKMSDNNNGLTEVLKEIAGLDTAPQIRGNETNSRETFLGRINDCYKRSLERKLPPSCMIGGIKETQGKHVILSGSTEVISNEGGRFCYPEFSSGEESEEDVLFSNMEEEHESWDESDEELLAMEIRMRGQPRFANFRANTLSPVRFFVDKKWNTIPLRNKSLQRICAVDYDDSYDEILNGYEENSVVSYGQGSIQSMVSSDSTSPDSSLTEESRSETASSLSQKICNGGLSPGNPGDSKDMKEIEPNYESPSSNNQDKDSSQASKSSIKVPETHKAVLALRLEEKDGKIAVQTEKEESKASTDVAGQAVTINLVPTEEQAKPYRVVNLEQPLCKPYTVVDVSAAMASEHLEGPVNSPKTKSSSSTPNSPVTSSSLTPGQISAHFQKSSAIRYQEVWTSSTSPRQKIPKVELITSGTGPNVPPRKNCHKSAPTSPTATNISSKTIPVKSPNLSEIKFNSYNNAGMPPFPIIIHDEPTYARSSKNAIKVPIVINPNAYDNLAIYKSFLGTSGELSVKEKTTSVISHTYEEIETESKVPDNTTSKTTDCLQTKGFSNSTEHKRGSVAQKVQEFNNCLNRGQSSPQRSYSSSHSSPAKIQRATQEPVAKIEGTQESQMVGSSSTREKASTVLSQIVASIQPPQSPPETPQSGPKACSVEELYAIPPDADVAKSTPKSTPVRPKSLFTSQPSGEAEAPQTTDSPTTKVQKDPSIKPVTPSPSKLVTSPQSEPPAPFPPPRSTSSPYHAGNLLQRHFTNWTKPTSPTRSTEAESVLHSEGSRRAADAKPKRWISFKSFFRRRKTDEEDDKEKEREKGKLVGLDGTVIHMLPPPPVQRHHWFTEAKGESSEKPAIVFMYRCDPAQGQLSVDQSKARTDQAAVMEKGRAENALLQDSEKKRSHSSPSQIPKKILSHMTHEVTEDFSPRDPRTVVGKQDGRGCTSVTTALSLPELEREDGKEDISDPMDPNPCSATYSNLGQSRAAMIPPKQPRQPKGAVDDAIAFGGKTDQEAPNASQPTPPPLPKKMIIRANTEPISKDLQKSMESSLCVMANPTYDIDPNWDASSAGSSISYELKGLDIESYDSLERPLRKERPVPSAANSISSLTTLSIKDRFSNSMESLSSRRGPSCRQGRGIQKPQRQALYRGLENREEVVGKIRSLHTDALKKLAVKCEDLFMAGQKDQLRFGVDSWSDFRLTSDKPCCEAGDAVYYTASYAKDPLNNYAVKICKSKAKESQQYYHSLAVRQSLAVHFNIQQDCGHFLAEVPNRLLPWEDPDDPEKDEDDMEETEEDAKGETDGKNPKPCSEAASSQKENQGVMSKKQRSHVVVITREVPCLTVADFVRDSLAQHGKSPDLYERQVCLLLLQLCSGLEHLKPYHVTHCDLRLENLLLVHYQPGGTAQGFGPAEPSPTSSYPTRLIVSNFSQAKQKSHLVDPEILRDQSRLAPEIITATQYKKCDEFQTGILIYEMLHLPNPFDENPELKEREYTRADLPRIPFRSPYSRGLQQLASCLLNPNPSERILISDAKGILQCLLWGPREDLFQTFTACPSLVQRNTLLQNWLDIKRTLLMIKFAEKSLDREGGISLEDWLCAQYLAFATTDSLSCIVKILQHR
T6 sequence (P10721 26-976 V560G/N822K): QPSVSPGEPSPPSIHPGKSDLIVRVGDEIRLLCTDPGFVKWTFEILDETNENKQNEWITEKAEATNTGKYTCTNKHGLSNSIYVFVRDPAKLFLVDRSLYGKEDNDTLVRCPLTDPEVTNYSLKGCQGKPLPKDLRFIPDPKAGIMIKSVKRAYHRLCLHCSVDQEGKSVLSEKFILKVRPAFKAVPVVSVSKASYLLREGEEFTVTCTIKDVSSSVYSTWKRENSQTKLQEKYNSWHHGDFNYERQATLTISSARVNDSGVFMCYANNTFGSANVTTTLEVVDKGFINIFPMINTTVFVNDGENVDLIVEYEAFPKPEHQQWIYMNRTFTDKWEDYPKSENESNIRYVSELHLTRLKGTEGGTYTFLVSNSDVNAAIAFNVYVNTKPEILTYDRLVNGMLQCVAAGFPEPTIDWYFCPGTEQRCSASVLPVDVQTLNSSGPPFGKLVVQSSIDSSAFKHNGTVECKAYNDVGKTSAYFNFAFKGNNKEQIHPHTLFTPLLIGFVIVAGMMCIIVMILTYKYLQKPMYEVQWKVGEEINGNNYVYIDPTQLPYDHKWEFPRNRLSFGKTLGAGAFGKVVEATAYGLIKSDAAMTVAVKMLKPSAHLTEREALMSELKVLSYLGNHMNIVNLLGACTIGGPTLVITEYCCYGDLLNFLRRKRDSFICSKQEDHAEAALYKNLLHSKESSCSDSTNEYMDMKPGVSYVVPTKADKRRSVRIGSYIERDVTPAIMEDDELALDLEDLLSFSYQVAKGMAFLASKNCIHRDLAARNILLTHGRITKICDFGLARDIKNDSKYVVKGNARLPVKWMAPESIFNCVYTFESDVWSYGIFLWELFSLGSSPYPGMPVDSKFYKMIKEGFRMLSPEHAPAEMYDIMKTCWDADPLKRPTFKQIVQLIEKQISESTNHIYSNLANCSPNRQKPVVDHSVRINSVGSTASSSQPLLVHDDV
T2 sequence (Q92918 whole entry): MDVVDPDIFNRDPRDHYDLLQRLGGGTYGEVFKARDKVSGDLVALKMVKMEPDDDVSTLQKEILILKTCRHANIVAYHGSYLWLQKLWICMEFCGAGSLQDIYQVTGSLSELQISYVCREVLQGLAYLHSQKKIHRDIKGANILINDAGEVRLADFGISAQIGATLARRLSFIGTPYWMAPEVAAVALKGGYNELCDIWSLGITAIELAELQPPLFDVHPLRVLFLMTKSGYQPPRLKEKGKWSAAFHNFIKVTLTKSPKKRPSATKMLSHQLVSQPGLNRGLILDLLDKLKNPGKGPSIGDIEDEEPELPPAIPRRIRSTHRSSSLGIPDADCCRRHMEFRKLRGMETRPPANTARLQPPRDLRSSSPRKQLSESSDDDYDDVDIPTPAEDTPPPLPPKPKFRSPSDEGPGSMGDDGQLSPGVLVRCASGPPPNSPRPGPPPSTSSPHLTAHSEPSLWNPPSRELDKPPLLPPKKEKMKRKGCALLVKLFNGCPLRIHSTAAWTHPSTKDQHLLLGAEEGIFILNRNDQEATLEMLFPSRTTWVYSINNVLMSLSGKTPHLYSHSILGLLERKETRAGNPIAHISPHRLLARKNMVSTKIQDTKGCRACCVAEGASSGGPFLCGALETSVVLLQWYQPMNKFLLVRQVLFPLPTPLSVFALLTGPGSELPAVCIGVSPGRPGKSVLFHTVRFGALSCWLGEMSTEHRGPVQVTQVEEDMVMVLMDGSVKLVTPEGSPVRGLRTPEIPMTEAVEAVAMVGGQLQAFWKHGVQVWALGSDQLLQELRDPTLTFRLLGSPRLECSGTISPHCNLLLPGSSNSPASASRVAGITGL

CC(C)c1cc(-c2n[nH]c(=O)n2-c2ccc3c(ccn3C)c2)c(O)cc1O [Ganetespib (STA9090)] was tested, and the remaining activity at 10 µM (382 unique human kinases [1]) was 75% and the remaining activity at 10 µM (382 unique human kinases [2]) was 97.5%.
For CC(C)c1cc(-c2n[nH]c(=O)n2-c2ccc3c(ccn3C)c2)c(O)cc1O [Ganetespib], the remaining activity at 10 µM (382 unique human kinases [3]) was 92.3%, the remaining activity at 10 µM (382 unique human kinases [4]) was 55.2% and the remaining activity at 1 µM (382 unique human kinases [5]; compound 1 uM, read-out: % Enzyme Activity (relative to DMSO controls)) was 43.5%. For the same compound, the remaining activity at 10 µM (382 unique human kinases [5]; [9]) was 10.2%, the remaining activity at 10 µM (382 unique human kinases [6]) was 41.8% and the remaining activity at 10 µM (382 unique human kinases [7]) was 90.9%. It also gave a remaining activity at 10 µM (382 unique human kinases [8]) of 52.8%.
In the case of CCNC(=O)c1noc(-c2cc(C(C)C)c(O)cc2O)c1-c1ccc(CN2CCOCC2)cc1 [Luminespib (AUY-922)], the “% Enzyme Activity (relative to DMSO controls)” value (382 unique human kinases [1]) is reported as 98.38%, the remaining activity at 10 µM (382 unique human kinases [1]) is reported as 99.7% and the “% Enzyme Activity (relative to DMSO controls)” value (382 unique human kinases [2]) is reported as 120.08%. For the same compound, the remaining activity at 10 µM (382 unique human kinases [2]) was 121%.
With CCNC(=O)c1noc(-c2cc(C(C)C)c(O)cc2O)c1-c1ccc(CN2CCOCC2)cc1 [Luminespib] the “% Enzyme Activity (relative to DMSO controls)” value (382 unique human kinases [3]) was 101.96%, the remaining activity at 10 µM (382 unique human kinases [3]) was 102% and the “% Enzyme Activity (relative to DMSO controls)” value (382 unique human kinases [4]) was 93.71%. The remaining activity at 10 µM (382 unique human kinases [4]) was 98.4%, the “% Enzyme Activity (relative to DMSO controls)” value (382 unique human kinases [5]; compound 10 uM) was 29.19% and the remaining activity at 10 µM (382 unique human kinases [5]; [9]) was 30.1%. The “% Enzyme Activity (relative to DMSO controls)” value (382 unique human kinases [6]) was 75.80%, the remaining activity at 10 µM (382 unique human kinases [6]) was 76.2% and the “% Enzyme Activity (relative to DMSO controls)” value (382 unique human kinases [7]) was 92.81%. For the same compound, the remaining activity at 10 µM (382 unique human kinases [7]) was 95.7%, the “% Enzyme Activity (relative to DMSO controls)” value (382 unique human kinases [8]) was 101.35% and the remaining activity at 10 µM (382 unique human kinases [8]) was 101%.

From article PMC8550792, “Evolution of kinase polypharmacology across HSP90 drug discovery” (Cell Chemical Biology, 2021)
